What all share (assay type): biochemical
Assay [1] deals with Jak2 (a.a. 828-1132) (Homo sapiens (Human), UniProt O60674). Briefly: In vitro JAK kinase assay (HTRF, phosphorylation of a biotinylated peptide), JAK2. Conditions: measured at 1 mM ATP. The gist of the method:
(§1)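 N-terminally His-tagged catalytic domains, baculovirus-expressed in insect cells and purified, were used as enzyme. Reactions ran 1 hr at room temperature and were stopped with a mix of 45 mM EDTA, 300 nM SA-APC and 6 nM Eu-Py20. The HTRF signal was read after 40 min of antibody binding.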

Assay [2] deals with human JAK1 (a.a. 837-1142) (Homo sapiens, UniProt P23458). Briefly: In vitro JAK kinase assay (HTRF, phosphorylation of a biotinylated peptide), JAK1. The conditions noted are these: measured at 1 mM ATP. The gist of the method:
as §1

The target in assay [3] is human JAK1 (a.a. 837-1142). Described as above. Conditions: ratio of JAK2 IC50 to JAK1 IC50, measured at 1 mM ATP. Put shortly: as §1

Each structure is given as a SMILES string. Where a name gives a salt, the structure may show the parent alone.

Sequence of Jak2 (a.a. 828-1132) (O60674 828-1132): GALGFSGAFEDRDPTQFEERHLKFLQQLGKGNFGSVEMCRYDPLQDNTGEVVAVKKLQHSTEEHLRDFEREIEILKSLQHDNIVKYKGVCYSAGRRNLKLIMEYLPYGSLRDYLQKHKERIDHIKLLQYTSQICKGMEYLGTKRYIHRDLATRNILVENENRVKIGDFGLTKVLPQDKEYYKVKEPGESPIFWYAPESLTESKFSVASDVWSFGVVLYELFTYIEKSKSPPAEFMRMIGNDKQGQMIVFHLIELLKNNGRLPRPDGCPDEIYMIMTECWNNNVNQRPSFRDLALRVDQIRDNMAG

With `CNCc1cc(C(=O)N2CCC(N3CC(CC#N)(n4cc(-c5ncnc6[nH]ccc56)cn4)C3)CC2)nc(C(F)(F)F)n1` [Example 371, {1-(1-{[6-[(methylamino)methyl]-2-(trifluoromethyl)pyrimidin-4-yl]carbonyl}piperidin-4-yl)-3-[4-(7H-pyrrolo[2,3-d]pyrimidin-4-yl)-1H-pyrazol-1-yl]azetidin-3-yl}acetonitrile trifluoroacetate salt], the IC50 was 50 to 100 nM in assay [1] and at most 5 nM in assay [2]. Further, the “IC50 Ratio JAK2/JAK1” value in assay [3] is 65.3.
In the case of `N#CCC1(n2cc(-c3ncnc4[nH]ccc34)cn2)CN(C2CCN(C(=O)c3cc(CN4CCC4)nc(C(F)(F)F)n3)CC2)C1` [Example 372, {1-(1-{[6-(azetidin-1-ylmethyl)-2-(trifluoromethyl)pyrimidin-4-yl]carbonyl}piperidin-4-yl)-3-[4-(7H-pyrrolo[2,3-d]pyrimidin-4-yl)-1H-pyrazol-1-yl]azetidin-3-yl}acetonitrile], the half-maximal inhibitory concentration (IC50) in assay [1] was 10 to 50 nM; in assay [2], at most 5 nM. The “IC50 Ratio JAK2/JAK1” value in assay [3] was 67.3.
Take `CCN(CC)Cc1cc(C(=O)N2CCC(N3CC(CC#N)(n4cc(-c5ncnc6[nH]ccc56)cn4)C3)CC2)nc(C(F)(F)F)n1` [Example 373, {1-(1-{[6-[(diethylamino)methyl]-2-(trifluoromethyl)pyrimidin-4-yl]carbonyl}piperidin-4-yl)-3-[4-(7H-pyrrolo[2,3-d]pyrimidin-4-yl)-1H-pyrazol-1-yl]azetidin-3-yl}acetonitrile]: the IC50 in assay [1] was 10 to 50 nM; in assay [2] it was at most 5 nM. In addition, the “IC50 Ratio JAK2/JAK1” value in assay [3] came to 36.8.
As for `CCN(C)Cc1cc(C(=O)N2CCC(N3CC(CC#N)(n4cc(-c5ncnc6[nH]ccc56)cn4)C3)CC2)nc(C(F)(F)F)n1` [Example 374, {1-(1-{[6-{[ethyl(methyl)amino]methyl}-2-(trifluoromethyl)pyrimidin-4-yl]carbonyl}piperidin-4-yl)-3-[4-(7H-pyrrolo[2,3-d]pyrimidin-4-yl)-1H-pyrazol-1-yl]azetidin-3-yl}acetonitrile], the IC50 in assay [1] was 10 to 50 nM; in assay [2], at most 5 nM. In assay [3], the “IC50 Ratio JAK2/JAK1” value was found to be 50.
The matching figures for `CN(C)Cc1cc(C(=O)N2CCC(N3CC(CC#N)(n4cc(-c5ncnc6[nH]ccc56)cn4)C3)CC2)cc(C(F)F)c1` [Example 375, {1-(1-{3-(difluoromethyl)-5-[(dimethylamino)methyl]benzoyl}piperidin-4-yl)-3-[4-(7H-pyrrolo[2,3-d]pyrimidin-4-yl)-1H-pyrazol-1-yl]azetidin-3-yl}acetonitrile]: 10 to 50 nM, at most 5 nM and 12.7.
The like results for `N#CCC1(n2cc(-c3ncnc4[nH]ccc34)cn2)CN(C2CCN(C(=O)c3cc(CN4CC[C@H](F)C4)nc(C(F)(F)F)n3)CC2)C1` [Example 377, {1-(1-{[6-{[(3S)-3-fluoropyrrolidin-1-yl]methyl}-2-(trifluoromethyl)pyrimidin-4-yl]carbonyl}piperidin-4-yl)-3-[4-(7H-pyrrolo[2,3-d]pyrimidin-4-yl)-1H-pyrazol-1-yl]azetidin-3-yl}acetonitrile (trifluoroacetate salt: 4 TFA)] were, in that order, 10 to 50 nM, at most 5 nM and 35.7.
Consider `N#CCC1(n2cc(-c3ncnc4[nH]ccc34)cn2)CN(C2CCN(C(=O)c3cc(CN4CC[C@@H](F)C4)nc(C(F)(F)F)n3)CC2)C1` [Example 378, {1-(1-{[6-{[(3R)-3-fluoropyrrolidin-1-yl]methyl}-2-(trifluoromethyl)pyrimidin-4-yl]carbonyl}piperidin-4-yl)-3-[4-(7H-pyrrolo[2,3-d]pyrimidin-4-yl)-1H-pyrazol-1-yl]azetidin-3-yl}acetonitrile (trifluoroacetate salt: 4 TFA)], for which the concentration for half-maximal inhibition (IC50) was 10 to 50 nM in assay [1] and at most 5 nM in assay [2]. In addition, the “IC50 Ratio JAK2/JAK1” value in assay [3] is recorded as 32.7.
On to `N#CCC1(n2cc(-c3ncnc4[nH]ccc34)cn2)CN(C2CCN(C(=O)c3cc(CN4CCC(F)(F)C4)nc(C(F)(F)F)n3)CC2)C1` [Example 379, {1-(1-{[6-[(3,3-difluoropyrrolidin-1-yl)methyl]-2-(trifluoromethyl)pyrimidin-4-yl]carbonyl}piperidin-4-yl)-3-[4-(7H-pyrrolo[2,3-d]pyrimidin-4-yl)-1H-pyrazol-1-yl]azetidin-3-yl}acetonitrile (trifluoroacetate salt: 4 TFA)], for which the IC50 is 50 to 100 nM in assay [1] and at most 5 nM in assay [2]. The “IC50 Ratio JAK2/JAK1” value in assay [3] amounted to 36.9.
With `N#CCC1(n2cc(-c3ncnc4[nH]ccc34)cn2)CN(C2CCN(C(=O)c3cc(CO)nc(C(F)(F)F)n3)CC2)C1` [Example 381, {1-(1-{[6-(hydroxymethyl)-2-(trifluoromethyl)pyrimidin-4-yl]carbonyl}piperidin-4-yl)-3-[4-(7H-pyrrolo[2,3-d]pyrimidin-4-yl)-1H-pyrazol-1-yl]azetidin-3-yl}acetonitrile], the values for the half-maximal inhibitory concentration (IC50) in assay [1] and in assay [2] were 10 to 50 nM and at most 5 nM, respectively. Moreover, the “IC50 Ratio JAK2/JAK1” value in assay [3] worked out at 20.
The matching figures for `CC(C)NCc1cc(C(=O)N2CCC(N3CC(CC#N)(n4cc(-c5ncnc6[nH]ccc56)cn4)C3)CC2)nc(C(F)(F)F)n1` [Example 382, {1-(1-{[6-[(isopropylamino)methyl]-2-(trifluoromethyl)pyrimidin-4-yl]carbonyl}piperidin-4-yl)-3-[4-(7H-pyrrolo[2,3-d]pyrimidin-4-yl)-1H-pyrazol-1-yl]azetidin-3-yl}acetonitrile]: 10 to 50 nM, at most 5 nM and 26.7.
For the molecule `CCNCc1cc(C(=O)N2CCC(N3CC(CC#N)(n4cc(-c5ncnc6[nH]ccc56)cn4)C3)CC2)nc(C(F)(F)F)n1` [Example 383, {1-(1-{[6-[(ethylamino)methyl]-2-(trifluoromethyl)pyrimidin-4-yl]carbonyl}piperidin-4-yl)-3-[4-(7H-pyrrolo[2,3-d]pyrimidin-4-yl)-1H-pyrazol-1-yl]azetidin-3-yl}acetonitrile], the concentration for half-maximal inhibition (IC50) was 10 to 50 nM in assay [1] and at most 5 nM in assay [2]. Besides, the “IC50 Ratio JAK2/JAK1” value in assay [3] is 30.5.
In the case of `COCCN(C)Cc1cc(C(=O)N2CCC(N3CC(CC#N)(n4cc(-c5ncnc6[nH]ccc56)cn4)C3)CC2)nc(C(F)(F)F)n1` [Example 384, {1-(1-{[6-{[(2-methoxyethyl)(methyl)amino]methyl}-2-(trifluoromethyl)pyrimidin-4-yl]carbonyl}piperidin-4-yl)-3-[4-(7H-pyrrolo[2,3-d]pyrimidin-4-yl)-1H-pyrazol-1-yl]azetidin-3-yl}acetonitrile], the IC50 in assay [1] is 50 to 100 nM; in assay [2] it was at most 5 nM. For the same molecule, the “IC50 Ratio JAK2/JAK1” value in assay [3] is on record as 29.6.
Take `CN(CCCO)Cc1cc(C(=O)N2CCC(N3CC(CC#N)(n4cc(-c5ncnc6[nH]ccc56)cn4)C3)CC2)nc(C(F)(F)F)n1` [Example 385, {1-(1-{[6-{[(3-hydroxypropyl)(methyl)amino]methyl}-2-(trifluoromethyl)pyrimidin-4-yl]carbonyl}piperidin-4-yl)-3-[4-(7H-pyrrolo[2,3-d]pyrimidin-4-yl)-1H-pyrazol-1-yl]azetidin-3-yl}acetonitrile]: the IC50 in assay [1] was 50 to 100 nM; in assay [2], at most 5 nM. Besides, the “IC50 Ratio JAK2/JAK1” value in assay [3] stood at 28.9.
Regarding `CCCOC(=O)N1CCC(N2CC(CC#N)(n3cc(-c4ncnc5[nH]ccc45)cn3)C2)CC1` [Example 386, Propyl 4-{3-(cyanomethyl)-3-[4-(7H-pyrrolo[2,3-d]pyrimidin-4-yl)-1H-pyrazol-1-yl]azetidin-1-yl}piperidine-1-carboxylate], the results for the 50% inhibitory concentration (IC50) in assay [1] and in assay [2] were 10 to 50 nM and at most 5 nM, respectively. The “IC50 Ratio JAK2/JAK1” value in assay [3] amounted to 7.7.
`N#CCC1(n2cc(-c3ncnc4[nH]ccc34)cn2)CN(C2CCN(C(=O)OCC3CCC3)CC2)C1` [Example 387, Cyclobutylmethyl 4-{3-(cyanomethyl)-3-[4-(7H-pyrrolo[2,3-d]pyrimidin-4-yl)-1H-pyrazol-1-yl]azetidin-1-yl}piperidine-1-carboxylate]: the IC50 is 10 to 50 nM in assay [1] and at most 5 nM in assay [2]. In assay [3], the “IC50 Ratio JAK2/JAK1” value is 9.7.
As to `CCOC(=O)N1CCC(N2CC(CC#N)(n3cc(-c4ncnc5[nH]ccc45)cn3)C2)CC1` [Example 388, ethyl 4-{3-(cyanomethyl)-3-[4-(7H-pyrrolo[2,3-d]pyrimidin-4-yl)-1H-pyrazol-1-yl]azetidin-1-yl}piperidine-1-carboxylate], the half-maximal inhibitory concentration (IC50) lay within 10 to 50 nM in assay [1] and 5 to 20 nM in assay [2]. Besides, the “IC50 Ratio JAK2/JAK1” value in assay [3] worked out at 7.6.
As to `N#CCC1(n2cc(-c3ncnc4[nH]ccc34)cn2)CN(C2CCN(C(=O)OCc3ccccc3)CC2)C1` [Example 389, benzyl 4-{3-(cyanomethyl)-3-[4-(7H-pyrrolo[2,3-d]pyrimidin-4-yl)-1H-pyrazol-1-yl]azetidin-1-yl}piperidine-1-carboxylate], the IC50 in assay [1] was 10 to 50 nM; in assay [2], at most 5 nM. Moreover, the “IC50 Ratio JAK2/JAK1” value in assay [3] was found to be 6.5.
Take `CC(C)COC(=O)N1CCC(N2CC(CC#N)(n3cc(-c4ncnc5[nH]ccc45)cn3)C2)CC1` [Example 390, isobutyl 4-{3-(cyanomethyl)-3-[4-(7H-pyrrolo[2,3-d]pyrimidin-4-yl)-1H-pyrazol-1-yl]azetidin-1-yl}piperidine-1-carboxylate]: the IC50 is 10 to 50 nM in assay [1] and at most 5 nM in assay [2]. Further, in assay [3], the “IC50 Ratio JAK2/JAK1” value is reported as 8.3.
`N#CCC1(n2cc(-c3ncnc4[nH]ccc34)cn2)CN(C2CCN(C(=O)OCC3CC3)CC2)C1` [Example 391, cyclopropylmethyl 4-{3-(cyanomethyl)-3-[4-(7H-pyrrolo[2,3-d]pyrimidin-4-yl)-1H-pyrazol-1-yl]azetidin-1-yl}piperidine-1-carboxylate]: the IC50 in assay [1] lay within 50 to 100 nM; in assay [2], 5 to 20 nM. Further, the “IC50 Ratio JAK2/JAK1” value in assay [3] is recorded as 10.6.

The values are drawn from patent publication US9999619B2, “Piperidin-4-yl azetidine derivatives as JAK1 inhibitors” (Incyte Corporation, priority 2010, dated 2018).
